Source: the supplement of paper PMC4862054

Key:
Assay in all cases: normalised response (% of control), CellTox Green; higher = less cell death (100 = DMSO, 0 = benzethonium chloride kill control)
Details in all cases: incubation time: 72 h
HCC1599 = tested on: HCC1599
Method in brief: (§1)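 Each value is the plate-normalised signal at one concentration of the series. Breast cancer cell lines (20 µl suspension) were incubated 72 h in 384-well plates with compound at 5 concentrations in 10-fold steps over a compound-specific 10,000-fold range. CellTox Green and then CellTiter-Glo were read, and each plate was scaled to 0.1 % DMSO (100) and a positive kill control (0).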

DU-4475 = tested on: DU-4475
Method in brief: as §1

MCF-10A = tested on: MCF-10A
Method in brief: as §1

MDA-MB-453 = tested on: MDA-MB-453
Method in brief: as §1

CAL-51 = tested on: CAL-51
Method in brief: as §1

CAL-148 = tested on: CAL-148
Method in brief: as §1

HDQ-P1 = tested on: HDQ-P1
Method in brief: as §1

CAL-120 = tested on: CAL-120
Method in brief: as §1

HCC1143 = tested on: HCC1143
Method in brief: as §1

HCC1937 = tested on: HCC1937
Method in brief: as §1

MDA-MB-468 = tested on: MDA-MB-468
Method in brief: as §1

MDA-MB-436 = tested on: MDA-MB-436
Method in brief: as §1

BT-474 = tested on: BT-474
Method in brief: as §1

MDA-MB-231 = tested on: MDA-MB-231
Method in brief: as §1

MFM-223 = tested on: MFM-223
Method in brief: as §1

CAL-85-1 = tested on: CAL-85-1
Method in brief: as §1

BT-549 = tested on: BT-549
Method in brief: as §1

Hs578T = tested on: Hs578T
Method in brief: as §1

| Compound | normalised response (HCC1599) | normalised response (DU-4475) | normalised response (MCF-10A) | normalised response (MDA-MB-453) | normalised response (CAL-51) | normalised response (CAL-148) | normalised response (HDQ-P1) | normalised response (CAL-120) | normalised response (HCC1143) | normalised response (HCC1937) | normalised response (MDA-MB-468) | normalised response (MDA-MB-436) | normalised response (BT-474) | normalised response (MDA-MB-231) | normalised response (MFM-223) | normalised response (CAL-85-1) | normalised response (BT-549) | normalised response (Hs578T) |
| --- | --- | --- | --- | --- | --- | --- | --- | --- | --- | --- | --- | --- | --- | --- | --- | --- | --- | --- |
| CN1CCC(COc2cnc(-c3cccc(Cn4nc(-c5cccc(C#N)c5)ccc4=O)c3)nc2)CC1 (1000 nM) | 106% | 105% | 88.3% | 105% | 99.9% | 103% | 95.5% | 95.6% | 128% | 123% | 140% | 112% | 98.4% | 125% | 94% | 85% | 115% | – |
| CN(C)C/C=C/C(=O)Nc1cc2c(Nc3ccc(F)c(Cl)c3)ncnc2cc1O[C@H]1CCOC1 [Afatinib] (1000 nM) | 104% | 106% | 99.6% | 97.1% | 106% | 94.1% | 93.8% | 94.1% | – | – | 110% | 102% | 52.4% | 117% | 99.8% | 66.4% | 107% | – |
| CN1CC[C@H](c2c(O)cc(O)c3c(=O)cc(-c4ccccc4Cl)oc23)[C@H](O)C1 [Alvocidib] (1000 nM) | 50.4% | 85.3% | 18.7% | 97.7% | 77.1% | -101% | 58% | 85.3% | 85.1% | 115% | 109% | 80.5% | 90.2% | 30.7% | 56.6% | 24.9% | 83.2% | 65.7% |
| CN1CC[C@H](c2c(O)cc(O)c3c(=O)cc(-c4ccccc4Cl)oc23)[C@H](O)C1 [Alvocidib] (10000 nM) | 86% | 94.9% | -1.97% | 102% | 63.9% | 92% | 71.5% | 81.8% | 92.5% | 92.3% | 52.6% | 100% | 88.8% | 25.4% | 47.7% | -9.96% | 66.1% | 12.8% |
| Nc1nc(Cl)nc2c1ncn2[C@H]1C[C@H](O)[C@@H](CO)O1 [Cladribine] (100 nM) | 98.3% | 103% | – | 108% | 109% | 95.7% | 110% | 101% | 119% | 85.4% | 72.2% | 73.8% | 99.7% | – | 78.7% | 104% | 127% | 98% |
| Nc1nc(Cl)nc2c1ncn2[C@H]1C[C@H](O)[C@@H](CO)O1 [Cladribine] (1000 nM) | 96% | 100% | 100% | 101% | 107% | 73.7% | 95.9% | 101% | – | 92.2% | 50.6% | 85.4% | 102% | 86.3% | 74.4% | 83.4% | 86.3% | 111% |
| Nc1ccn([C@@H]2O[C@H](CO)[C@@H](O)[C@@H]2O)c(=O)n1 [Cytarabine] (1000 nM) | 104% | 109% | 115% | 112% | 37.4% | 69.9% | 107% | 106% | 112% | 117% | 159% | 83.5% | 103% | 106% | 97.5% | 109% | 111% | 85.2% |
| Nc1ccn([C@@H]2O[C@H](CO)[C@@H](O)[C@@H]2O)c(=O)n1 [Cytarabine] (10000 nM) | 95.5% | 101% | 48.4% | 104% | 26.1% | 69.2% | 111% | 108% | 64.6% | 96.1% | 156% | 93.6% | 100% | 113% | 107% | 91.7% | 99.4% | 134% |
| Cc1c2oc3c(C)ccc(C(=O)N[C@@H]4C(=O)N[C@H](C(C)C)C(=O)N5CCC[C@H]5C(=O)N(C)CC(=O)N(C)[C@@H](C(C)C)C(=O)O[C@@H]4C)c3nc-2c(C(=O)N[C@@H]2C(=O)N[C@H](C(C)C)C(=O)N3CCC[C@H]3C(=O)N(C)CC(=O)N(C)[C@@H](C(C)C)C(=O)O[C@@H]2C)c(N)c1=O [Dactinomycin] (100 nM) | 75.9% | 81.8% | -3.54% | 98% | 29.5% | 23.9% | 61.8% | 85.4% | 91% | 109% | 56.9% | 89.8% | 76.7% | 17.9% | 78.6% | 31.6% | 33.4% | 26.1% |
| Cc1c2oc3c(C)ccc(C(=O)N[C@@H]4C(=O)N[C@H](C(C)C)C(=O)N5CCC[C@H]5C(=O)N(C)CC(=O)N(C)[C@@H](C(C)C)C(=O)O[C@@H]4C)c3nc-2c(C(=O)N[C@@H]2C(=O)N[C@H](C(C)C)C(=O)N3CCC[C@H]3C(=O)N(C)CC(=O)N(C)[C@@H](C(C)C)C(=O)O[C@@H]2C)c(N)c1=O [Dactinomycin] (1000 nM) | 113% | 104% | 41.4% | 104% | 95.1% | 79.9% | 94.9% | 101% | 59.3% | 124% | 52.8% | 116% | 89.6% | 52.3% | 60.5% | 13.8% | 93% | 40.6% |
| COc1cccc2c1C(=O)c1c(O)c3c(c(O)c1C2=O)C[C@@](O)(C(=O)CO)C[C@@H]3O[C@H]1C[C@H](N)[C@H](O)[C@H](C)O1 [Doxorubicin] (100 nM) | 100% | 96.4% | 115% | 109% | 43.3% | 81.4% | 78.6% | 100% | – | 134% | 151% | 95.2% | 105% | 111% | 86.3% | 96.4% | 160% | 103% |
| Cc1ccc(F)c(NC(=O)Nc2ccc(-c3cccc4[nH]nc(N)c34)cc2)c1 [Linifanib] (1000 nM) | 104% | 106% | 90% | 102% | 99.5% | 95.7% | – | 97.9% | 87.2% | 104% | 86.9% | 107% | 101% | 110% | 101% | 65.7% | 122% | 105% |
| Clc1ccc(C(c2ccccc2Cl)C(Cl)Cl)cc1 (centres undefined) [Mitotane] (1000 nM) | 93.5% | 98.3% | 96.4% | 100% | 103% | 104% | 56.1% | 98.1% | 87% | 99.9% | 140% | 96.3% | 100% | 95.2% | 93.7% | 108% | 115% | – |
| Clc1ccc(C(c2ccccc2Cl)C(Cl)Cl)cc1 (centres undefined) [Mitotane] (10000 nM) | 99.5% | 97.7% | 100% | 104% | 98.5% | 98.1% | 106% | 95.6% | 68.9% | – | 80.3% | 99.5% | 98% | – | 96.9% | 107% | 93.4% | 105% |
| COc1cccc2cc(-c3nc([C@H]4CC[C@H](C(=O)O)CC4)n4ncnc(N)c34)[nH]c12 [OSI-027] (1000 nM) | 101% | 97.3% | 106% | 105% | 104% | 107% | 108% | 97.3% | – | – | 119% | 91.9% | 100% | 65% | 98.9% | 93.6% | 102% | 106% |
| N#CC[C@H](C1CCCC1)n1cc(-c2ncnc3[nH]ccc23)cn1 [Ruxolitinib] (1000 nM) | 95.2% | 95.8% | – | 102% | 111% | 104% | 86.3% | 96.5% | 102% | – | 119% | 96.2% | 100% | 107% | 96.2% | 108% | 127% | 83.8% |
| N#CC[C@H](C1CCCC1)n1cc(-c2ncnc3[nH]ccc23)cn1 [Ruxolitinib] (10000 nM) | 96.7% | 98.2% | 90% | 98.4% | 76.2% | 95.1% | – | 98.7% | 98.3% | – | 149% | 97.7% | 98.6% | 93.4% | 94.1% | 84.8% | 113% | 118% |
| C=CC[C@@H]1/C=C(\C)C[C@H](C)C[C@H](OC)[C@H]2O[C@@](O)(C(=O)C(=O)N3CCCC[C@H]3C(=O)O[C@H](/C(C)=C/[C@@H]3CC[C@@H](O)[C@H](OC)C3)[C@H](C)[C@@H](O)CC1=O)[C@H](C)C[C@@H]2OC [Tacrolimus] (1000 nM) | 90.2% | 100% | 108% | 106% | 110% | 104% | – | 99.5% | 102% | 97.2% | 130% | 89.6% | 99.5% | 108% | – | 96.3% | 116% | – |
| C=CC[C@@H]1/C=C(\C)C[C@H](C)C[C@H](OC)[C@H]2O[C@@](O)(C(=O)C(=O)N3CCCC[C@H]3C(=O)O[C@H](/C(C)=C/[C@@H]3CC[C@@H](O)[C@H](OC)C3)[C@H](C)[C@@H](O)CC1=O)[C@H](C)C[C@@H]2OC [Tacrolimus] (10000 nM) | 100% | 99.8% | 70.6% | 100% | 97.9% | 95.8% | 88.2% | 97.6% | 91.2% | 93.6% | 52.5% | 92.5% | 101% | – | 98.3% | 92.3% | 103% | 112% |
| C[C@]1(c2nc3c(C(N)=O)cccc3[nH]2)CCCN1 [Veliparib] (10000 nM) | 117% | 103% | 107% | 95.4% | 86.6% | – | 90.5% | 98.2% | 110% | 110% | 125% | 112% | 96.5% | 88.2% | 92.3% | 87.9% | 106% | 109% |
| CS(=O)(=O)c1ccc(C(=O)Nc2ccc(Cl)c(-c3ccccn3)c2)c(Cl)c1 [Vismodegib] (1000 nM) | 85.9% | 99% | 88.2% | 99.7% | 86.1% | 104% | 88.1% | 95% | – | 106% | 149% | 98% | 100% | 90.8% | 99.1% | 94.4% | 99.3% | 100% |
